B1: nYFP-HDC1 (N-terminal half of YFP fused to full length A. thaliana HISTONE DEACETYLASE COMPLEX 1) (other)
chain: MSGVPKRSHEEGVTHPSSSSSVAKYPHEDSGSYPKSPHQPVTPPPAQVHHNHQQPHQHPQSQSQSQPQPHLQALPHPHSHSHSHSPLAAAASASAPYEVESRTVVKVARSEPRDGERRSPLPLVYRSPSLPTTVSSSDPHLTHAPVPMEPRDGAKDGREIRVESRENRSDGREIYGETKREIQGPKGDRDVKFERSVDDFSGKGNTGSYTRNDGREMYGETKREIQGPKSDRDAKFERPGDDFSGKSNAGSYTRDTKFDRENQNYNEQKGEIKMEKEGHAHLAWKEQKDYHRGKRVAEGSTANVDPWVVSRGNPQGPTEVGPKDLSAPVEGSHLEGRETVGENKVDAKNEDRFKEKDKKRKELKHREWGDRDKDRNDRRVSVLVGSVMSEPKEIGREERESDRWERERMEQKDRERNKEKDKDHIKREPRTGAEKEISQNEKELGEASAKPSEQEYVAPEQKKQNEPDNCEKDERETKEKRRERDGDSEAERAEKRSRISEKESEDGCLEGEGATEREKDAFNYGVQQRKRALRPRGSPQTTNRDNVRSRSQDNEGVQGKSEVSIVVYKVGECMQELIKLWKEYDLSHPDKSGDFANNGPTLEVRIPAEHVTATNRQVRGGQLWGTDIYTDDSDLVAVLMHTGYCRPTASPPPPTMQELRTTIRVLPSQDYYTSKLRNNVRSRAWGAGIGCSYRVERCYILKKGGGTIELEPSLTHSSTVEPTLAPMAVERSMTTRAAASNALRQQRFVREVTIQYNLCNEPWIKYSISIVADKGLKKPLFTSARLKKGEVLYLETHSCRYELCFAGEKTIKAIQASQQQSSHEAMETDNNNNKSQNHLTNGDKTDSDNSLIDVFRWSRCKKPLPQKLMRSIGFPLPADHIEVLEENLDWEDVQWSQTGVWIAGKEYTLARVHFLSPN
notes: Expressed transiently in tobacco leaf cells from a 2-in-1 BiFC vector together with the cYFP partner and a full-length RFP; not shown: N-terminal half of YFP (nYFP) from vector pBiFCt-2in1-NN
B2: cYFP-HDA19 (C-terminal half of YFP fused to A. thaliana HISTONE DEACETYLASE 19) (enzyme, Arabidopsis thaliana, UniProt O22446 1-501, looked up)
chain: MDTGGNSLASGPDGVKRKVCYFYDPEVGNYYYGQGHPMKPHRIRMTHALLAHYGLLQHMQVLKPFPARDRDLCRFHADDYVSFLRSITPETQQDQIRQLKRFNVGEDCPVFDGLYSFCQTYAGGSVGGSVKLNHGLCDIAINWAGGLHHAKKCEASGFCYVNDIVLAILELLKQHERVLYVDIDIHHGDGVEEAFYATDRVMTVSFHKFGDYFPGTGHIQDIGYGSGKYYSLNVPLDDGIDDESYHLLFKPIMGKVMEIFRPGAVVLQCGADSLSGDRLGCFNLSIKGHAECVKFMRSFNVPLLLLGGGGYTIRNVARCWCYETGVALGVEVEDKMPEHEYYEYFGPDYTLHVAPSNMENKNSRQMLEEIRNDLLHNLSKLQHAPSVPFQERPPDTETPEVDEDQEDGDKRWDPDSDMDVDDDRKPIPSRVKREAVEPDTKDKDGLKGIMERGKGCEVEVDESGSTKVTGVNPVGVEEASVKMEEEGTNKGGAEQAFPPKT
notes: expressed transiently in tobacco leaf cells; not shown: C-terminal half of YFP (cYFP) from vector pBiFCt-2in1-NN

Assays:
A. thaliana plants = tested on: A. thaliana plants
Procedure: (§1) All experiments were carried out in controlled growth rooms at a temperature of 20-22° C. and a light intensity of 120-150 μmol PAR. Plants were grown either in long days (16 h light) or in short days (10 h light) as indicated in text and figure legends. Seeds of A. thaliana wildtype and transgenic lines were sterilized, stratified and germinated on soil or on agar plates. Agar plates contained half strength Murashige & Skoog (MS) media with 1% sucrose and 0.8% agar at pH 5.7. For germination assays media were supplemented with NaCl, ABA (cat. A1049,SIGMA), PAC (Fluka cat. 46046) or TSA (SIGMA cat.T8852) at the concentrations given in the figures. Germination rate was scored on day 6 after sowing by counting seedlings that had developed green cotyledons. Experiments with adult plants were carried out on soil or in hydroponic culture. For the latter, seeds were germinated on agar plates and 2-3 weeks old seedlings were placed perforated lids of black 1-litre plastic containers. The growth medium consisted in a minimal sufficient nutrient medium (Kellermeier et al., 2013, PLoS Genet. 7). For salt treatment NaCl powder was stirred directly into the growth container to obtain the desired concentration (as stated in the figures). Control media were stirred without adding NaCl. For controlled drought experiments, plants were grown on soil in pots according to a randomized design. Using previously reported methodology (Granier et al., 2006, New Phytologist 169:623-635; Skirycz et al., 2011, Nat. Biotech. 29:212-214), controlled watering was used to impose moderate water stress. After 14 days of plant growth in well-watered soil, watering was reduced so that the relative soil water content of the stressed plants was maintained at 50% of the normal watering regime. Control plants were watered normally.

A. thaliana seeds = experiment: Germination assay on agar plates (seedlings with green cotyledons on day 6 after sowing); format: in vivo, Arabidopsis thaliana; settings: for cumulative germination rate: increasing concentrations in agar, all lines (wildtype, hdc1-1, HDC1-OX), scored after 6 days
Procedure: as §1
Germinating seeds arrest growth and development if they encounter low water potentials in the environment (Finkelstein et al., 2008, In Annual Review of Plant Biology (Palo Alto: Annual Reviews), pp. 387-415). The post-imbibition response is mediated by ABA and can be mimicked by external application of ABA. […] To test a function of HDC1 in this process seeds of A. thaliana wildtype, hdc1-1, and HDC1-0X lines were imbibed to break dormancy, and subsequently plated out on agar plates containing different concentrations of NaCl, mannitol, ABA or PAC. A cumulative germination rate (encompassing all post-imbibition stages of seedling development) was scored as the number of seedlings that had developed cotyledons after 6 days.
To test whether histone deactylation was required for ABA-dependence of seed germination and for the effect of HDC1 on this process, we subjected germinating seeds to the histone deacetylase inhibitor trichostatin A (TSA).

[1] = target: T1, cYFP-HDA6 (C-terminal half of YFP fused to A. thaliana HISTONE DEACETYLASE 6) (Arabidopsis thaliana, UniProt Q9FML2 1-471); experiment: ratiometric BiFC in tobacco leaf cells (nYFP-HDC1 with cYFP-HDA6)
T1 construct: expressed transiently in tobacco leaf cells; not shown: C-terminal half of YFP (cYFP) from vector pBiFCt-2in1-NN
T1 sequence (looked up): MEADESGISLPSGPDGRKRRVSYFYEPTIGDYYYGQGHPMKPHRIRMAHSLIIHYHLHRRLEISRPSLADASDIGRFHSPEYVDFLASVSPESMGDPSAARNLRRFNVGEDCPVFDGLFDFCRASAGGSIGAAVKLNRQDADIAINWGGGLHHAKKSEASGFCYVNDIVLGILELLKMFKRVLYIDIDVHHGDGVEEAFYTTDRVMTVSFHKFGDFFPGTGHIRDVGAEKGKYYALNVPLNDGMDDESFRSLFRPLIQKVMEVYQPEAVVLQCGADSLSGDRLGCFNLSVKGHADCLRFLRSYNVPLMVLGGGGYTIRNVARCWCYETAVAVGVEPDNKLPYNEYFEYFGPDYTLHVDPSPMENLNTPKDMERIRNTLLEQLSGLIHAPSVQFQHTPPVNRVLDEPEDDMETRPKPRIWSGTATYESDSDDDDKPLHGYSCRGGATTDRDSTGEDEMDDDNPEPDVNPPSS
Procedure: (§2) Fluorescence in tobacco epidermal cells was assessed two days post infiltration using a CLSM-510-META-UV confocal microscope (Zeiss, Jena). For single protein localization GFP fluorescence was excited at 488 nm with light from an Argon laser and collected after passage through an NFT545 dichroic mirror with a 505 nm long pass filter. For co-localization experiments GFP fluorescence was collected with a 505-530 band pass filter. RFP fluorescence was excited at 543 nm with light from a Helium Neon laser and was collected after passage through an NFT545 dichroic mirror and a 560-615 nm band pass filter. YFP fluorescence was excited at 514 nm with light from Argon laser and was collected using lambda mode between 520-550 nm. Co-localization plane and line scans were evaluated using Zeiss LSM 510 AIM software (v3.2).
(§3) To investigate whether HDC1 is a member of HDAC protein complexes in plants we tested co-localization and direct interaction of HDC1 with known HDACs of A. thaliana. […] Direct interaction was investigated by bimolecular fluorescence complementation (BiFC). To avoid misinterpretation of background fluorescence we used a new ratiometric BiFC assay (Grefen and Blatt, 2012, supra) in which N- and C-terminal halves of yellow fluorescent protein (YFP), fused to HDC1 and HDA6/19 respectively, and a full-length RFP, are expressed from a single vector FIG. 4A). […]

[2] = target: T2, cYFP-SIN3 (C-terminal half of YFP fused to A. thaliana Sin3-like protein 3) (Arabidopsis thaliana, UniProt O48686 1-1330); experiment: ratiometric BiFC in tobacco leaf cells (nYFP-HDC1 with cYFP-SIN3)
T2 construct: negative control partner for nYFP-HDC1; also called AtSin3; SNL3; not shown: C-terminal half of YFP (cYFP) from vector pBiFCt-2in1-NN
T2 sequence (O48686 whole entry, the tested form may be a part): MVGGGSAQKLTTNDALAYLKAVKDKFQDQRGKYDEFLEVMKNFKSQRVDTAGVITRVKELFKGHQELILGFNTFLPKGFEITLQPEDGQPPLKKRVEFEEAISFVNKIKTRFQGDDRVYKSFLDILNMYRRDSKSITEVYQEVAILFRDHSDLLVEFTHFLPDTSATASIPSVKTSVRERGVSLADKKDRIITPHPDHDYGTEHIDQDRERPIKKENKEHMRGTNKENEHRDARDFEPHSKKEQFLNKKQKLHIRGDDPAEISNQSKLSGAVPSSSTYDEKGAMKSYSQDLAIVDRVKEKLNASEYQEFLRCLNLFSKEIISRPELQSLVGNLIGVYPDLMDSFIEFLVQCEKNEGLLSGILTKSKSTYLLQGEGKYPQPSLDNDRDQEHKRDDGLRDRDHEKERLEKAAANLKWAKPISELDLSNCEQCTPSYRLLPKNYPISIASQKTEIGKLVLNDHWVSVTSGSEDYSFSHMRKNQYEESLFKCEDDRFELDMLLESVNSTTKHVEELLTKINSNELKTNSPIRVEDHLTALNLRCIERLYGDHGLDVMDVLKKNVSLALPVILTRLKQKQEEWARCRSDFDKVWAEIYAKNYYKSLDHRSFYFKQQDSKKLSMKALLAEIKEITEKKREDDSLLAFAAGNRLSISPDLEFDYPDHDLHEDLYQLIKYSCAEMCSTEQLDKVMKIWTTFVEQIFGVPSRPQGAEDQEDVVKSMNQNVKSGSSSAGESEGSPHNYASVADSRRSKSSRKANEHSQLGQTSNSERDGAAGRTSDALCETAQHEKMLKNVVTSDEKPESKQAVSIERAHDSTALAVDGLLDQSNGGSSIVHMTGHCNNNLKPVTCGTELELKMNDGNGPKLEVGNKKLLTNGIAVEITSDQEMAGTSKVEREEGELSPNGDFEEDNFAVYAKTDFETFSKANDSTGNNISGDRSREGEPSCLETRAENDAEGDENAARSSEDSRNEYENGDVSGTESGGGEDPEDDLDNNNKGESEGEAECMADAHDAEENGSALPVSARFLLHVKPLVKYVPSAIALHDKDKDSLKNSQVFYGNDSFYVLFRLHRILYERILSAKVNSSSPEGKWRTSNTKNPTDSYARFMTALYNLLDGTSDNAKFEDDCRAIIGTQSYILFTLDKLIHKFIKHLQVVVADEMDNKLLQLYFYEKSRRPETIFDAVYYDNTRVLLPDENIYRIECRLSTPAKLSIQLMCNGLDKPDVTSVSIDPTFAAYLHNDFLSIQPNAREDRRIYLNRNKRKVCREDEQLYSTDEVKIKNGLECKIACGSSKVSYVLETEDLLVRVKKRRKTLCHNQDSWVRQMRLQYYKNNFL

[3] = target: B2; experiment: ratiometric BiFC in tobacco leaf cells (nYFP-HDC1 with cYFP-HDA19)
Procedure: as §2, §3

[4] = target: T3, nYFP-SIN3 (N-terminal half of YFP fused to A. thaliana Sin3-like protein 3) (Arabidopsis thaliana, UniProt O48686 1-1330); experiment: ratiometric BiFC in tobacco leaf cells (nYFP-SIN3 with cYFP-HDA19)
T3 construct: positive control partner for cYFP-HDA19; also called AtSin3; SNL3; not shown: N-terminal half of YFP (nYFP) from vector pBiFCt-2in1-NN
T3 sequence (O48686 whole entry, the tested form may be a part): as above

[5] = 150 mM NaCl for 24 hours, all lines

[Cl-].[Na+] [NaCl]
chlorosis or desiccation (A. thaliana plants; 80 mM NaCl, 6 days): did not produce severe chlorosis or desiccation | growth (A. thaliana plants; 80 mM NaCl, 6 days, all lines): slowed growth | shoot water content (A. thaliana plants; 80 mM NaCl, after 6 days, all lines, from 92±1% without salt): 86±1% | ABA biosynthesis (shoot ABA levels) (A. thaliana plants; [5]): efficiently induced | transcript levels of ABA-receptor PYL4 and 'drought-repressed' gene DR4 (A. thaliana plants; [5]): efficiently repressed | cumulative germination rate (A. thaliana seeds): decrease in germination rates

CC(/C=C/C(=O)NO)=C\[C@@H](C)C(=O)c1ccc(N(C)C)cc1 [TSA, trichostatin A]
effect on ABA-sensitivity of germination (A. thaliana seeds; HDC1-overexpressing lines): increased ABA-sensitivity | effect on seed germination (A. thaliana seeds; low-micromolar TSA (0.3 or 3 μM), in the absence of ABA): no effect on seed germination | effect on ABA-sensitivity of germination (A. thaliana seeds; wildtype plants, 0.3 μM TSA at 0.2 μM ABA): significant effect | effect on ABA-sensitivity of germination (A. thaliana seeds; wildtype plants, 3 μM TSA at 0.4 μM ABA): significant effect | effect on ABA-sensitivity of germination (A. thaliana seeds; wildtype plants, dose-dependent): increased the ABA-sensitivity

CC(C)(C)[C@@H](O)[C@@H](Cc1ccc(Cl)cc1)n1cncn1 (racemic) [PAC, paclobutrazol]
cumulative germination rate (A. thaliana seeds): decrease in germination rates

OC[C@@H](O)[C@@H](O)[C@H](O)[C@H](O)CO [mannitol]
cumulative germination rate (A. thaliana seeds): decrease in germination rates

CC1=CC(=O)CC(C)(C)[C@@]1(O)/C=C/C(C)=C\C(=O)O [ABA, Abscisic acid]
cumulative germination rate (A. thaliana seeds): decrease in germination rates

B1
binding result [1]: binds | binding result [2]: no binding | binding result [3]: binds

B2
binding result [4]: binds

Reference: US20180037903A1, “METHODS AND MEANS FOR INCREASING STRESS TOLERANCE AND BIOMASS IN PLANTS” (THE UNIVERSITY COURT OF THE UNIVERSITY OF GLASGOW, priority 2013, published 2018)
